# Where no end group is shown, it is not given here.
# Experiments:
# [1] = tested on: food intake in C57/BL6 mice; assay: Acute feeding studies (food intake) in overnight-fasted mice; assay type: in vivo, mouse; details: for inhibition of food intake over 24 hours vs saline: 0 to 24 hours
# Procedure: All animal procedures were approved by the British Home Office, under the United Kingdom Animal (Scientific Procedures) Act 1986 (project license, 70/6402). Adult male C57/BL6 mice (Harlan, Wyton, UK) weighing 20 to 25 g were maintained in individual cages under controlled temperature (21°C to 23°C) and light (12-hour light/dark cycle, with lights on at 7:00 AM). The mice had ad libitum access to water and normal chow RM1 (Special Diet Services, Devon, UK), unless stated otherwise. For acclimatization, the mice were regularly handled and given 2 sham subcutaneous (SC) and/or intraperitoneal (IP) injections of saline. Before each feeding study, the mice were fasted overnight, and the injections were performed during the early light phase (8:00 to 10:00 AM). The mice were stratified by body weight. To investigate the anorectic effects of DPPIV-resistant analogs, the mice were stratified into treatment groups and administered a SC injection (maximum volume, 100 µL) of vehicle, PP, PP3-36, PP2-36, or PP-Ala0 (n = […]). Food intake was measured at 1, 2, 4, and 8 hours after injection to compare the peptides with short half-lives (PP and its endogenous degradation product, PP3-36) and, in a separate experiment, at 24 hours after injection for peptides with modifications (PP-Ala0 and PP2-36, using PP as the comparator). A PP analog with global modifications for enzyme resistance (PP-x) was also investigated and administered as a SC injection (maximum volume, 100 µL) at a high and low dose (n = 9). Food intake was measured at 1, 2, 4, and 8 hours after injection. […] This dose of phosphoramidon was sufficient to inhibit NEP activity ([30]). Food intake was measured at 1, 2, 4, 8, 24, and 48 hours after injection.
# in vivo = assay: in vivo; set-up: species or system mouse; details: sc
# Procedure: The mice were divided into four treatment groups according to body weight. A protocol similar to that used for the phosphoramidon feeding study was used, with an IP injection, followed by a SC injection 15 minutes later (maximum volume, 50 µL for each injection) of phosphoramidon (0, 7, 20, and 60 mg/kg IP), followed by PP (150 nmol/kg SC in saline; n = 4 to 6; […]). […] Additional mice (n = 2) underwent overnight fasting and were culled at 0 minutes after injection of the control substances (saline SC and vehicle IP) for measurement of the baseline levels of circulating PP. The blood was immediately removed via cardiac puncture and centrifuged at 6000 rpm (Sigma 3K18; 12348 rotor; Sigma-Aldrich) for 10 minutes. The plasma was stored at −20°C until analysis. The plasma samples were assayed using an established in-house PP RIA ([8]). The anti-PP antibody was elevated in rabbit against human PP and recognized PP (and other truncated forms) but not in other PP-fold peptides or gastrointestinal peptides. ^125I-PP was prepared using the iodogen method and purified using HPLC. The assay was performed in duplicate in a total volume of 700 µL of 0.06 M phosphate buffer (pH 7.35) containing 0.3% bovine serum albumin. The samples were incubated for 3 days at 4°C before separation of free and antibody-bound ^125I-PP using dextran-coated charcoal. The sensitivity was ≤5 fmol/tube. The intra-assay coefficient of variation was 6%.
# mouse Y4 receptor = target: T1, mouse Y4 receptor (Mus musculus, UniProt Q61041); assay: Y4 receptor binding assay (125I-PP competition)
# T1 construct: expressed in transfected cells; host or cells: HEK293
# Procedure: Transfected HEK293 cells overexpressing the mouse Y4 receptor were prepared and binding assays performed as previously described ([29]). Isolated cell membranes (protein concentration, 1 to 2 µg/mL) were incubated for 90 minutes in siliconized polypropylene tubes together with ^125I-PP [1 kBq (100 pM)] and a dose response of unlabeled competing peptides at 4°C in binding buffer [20 mM HEPES (pH 7.4), 1 mM MgCl2, 5 mM CaCl2, 0.1% bovine serum albumin, and protease inhibitors (0.2 mM phenylmethylsulfonyl fluoride, 0.1 mM Diprotin A, and 10 µM phosphoramidon ( all from Sigma-Aldrich)] in a final assay volume of 0.5 mL. PP was iodinated as previously described ([8]) using ^125I from GE Healthcare Life Sciences (Amersham, UK). Pelleted membranes were washed with 5 mL ice-cold assay buffer, and the membranes were centrifuged at 15,874g for 3 minutes at 4°C, as described, to separate bound and free label. Bound radioactivity was measured using a γ-counter (NE 1600; NE Technology Ltd, Reading, UK). Specific binding was calculated as the difference between the amount of ^125I-PP bound in the absence (total binding) and presence of 5 μM unlabeled competing peptide (nonsaturable binding). All curves were performed with points in triplicate. Half maximal inhibitory concentration values were calculated using Prism, version 5.01 (GraphPad Software Inc., San Diego, CA) using a three-parameter logistic equation for the nonlinear regression fit: Y = bottom + (top − bottom)/1 + 10^(LogEC50 − X), where EC50 is the half maximal effective concentration.
# [2] = 150 nmol/kg SC, overnight-fasted C57/BL6 mice, n = 7
# T1 sequence (Q61041 whole entry): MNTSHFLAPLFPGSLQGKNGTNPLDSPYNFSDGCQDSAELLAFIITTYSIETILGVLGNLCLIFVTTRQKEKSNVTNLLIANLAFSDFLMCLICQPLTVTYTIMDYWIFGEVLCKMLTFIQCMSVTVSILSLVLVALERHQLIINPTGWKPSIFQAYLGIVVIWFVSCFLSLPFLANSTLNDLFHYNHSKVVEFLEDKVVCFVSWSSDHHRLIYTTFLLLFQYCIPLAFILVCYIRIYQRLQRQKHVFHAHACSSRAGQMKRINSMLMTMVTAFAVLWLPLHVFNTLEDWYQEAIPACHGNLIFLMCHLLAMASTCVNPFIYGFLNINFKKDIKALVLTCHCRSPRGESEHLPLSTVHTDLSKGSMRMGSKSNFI
compound,measurement,setting,value
CC[C@H](C)[C@H](NC(=O)[C@H](Cc1ccc(O)cc1)NC(=O)[C@H](CCCNC(=N)N)NC(=O)[C@H](CCCNC(=N)N)NC(=O)[C@H](CC(C)C)NC(=O)[C@H](CC(=O)O)NC(=O)[C@H](C)NC(=O)[C@H](C)NC(=O)[C@H](Cc1ccc(O)cc1)NC(=O)[C@H](CCC(N)=O)NC(=O)[C@H](C)NC(=O)[C@H](CCSC)NC(=O)[C@H](CCC(N)=O)NC(=O)[C@H](CCC(=O)O)NC(=O)[C@@H]1CCCN1C(=O)[C@@H](NC(=O)[C@H](C)NC(=O)[C@H](CC(N)=O)NC(=O)[C@H](CC(=O)O)NC(=O)CNC(=O)[C@@H]1CCCN1C(=O)[C@H](Cc1ccc(O)cc1)NC(=O)[C@@H](NC(=O)[C@@H]1CCCN1C(=O)[C@H](CCC(=O)O)NC(=O)[C@H](CC(C)C)NC(=O)[C@@H]1CCCN1)C(C)C)[C@@H](C)O)C(=O)N[C@@H](CC(N)=O)C(=O)N[C@@H](CCSC)C(=O)N[C@@H](CC(C)C)C(=O)N[C@H](C(=O)N[C@@H](CCCNC(=N)N)C(=O)N1CCC[C@H]1C(=O)N[C@@H](CCCNC(=N)N)C(=O)N[C@@H](Cc1ccc(O)cc1)C(N)=O)[C@@H](C)O [PP2-36],inhibition of food intake over 24 hours vs saline,[1]; [2],statistically significant inhibition of food intake
CC[C@H](C)[C@H](NC(=O)[C@H](Cc1ccc(O)cc1)NC(=O)[C@H](CCCNC(=N)N)NC(=O)[C@H](CCCNC(=N)N)NC(=O)[C@H](CC(C)C)NC(=O)[C@H](CC(=O)O)NC(=O)[C@H](C)NC(=O)[C@H](C)NC(=O)[C@H](Cc1ccc(O)cc1)NC(=O)[C@H](CCC(N)=O)NC(=O)[C@H](C)NC(=O)[C@H](CCSC)NC(=O)[C@H](CCC(N)=O)NC(=O)[C@H](CCC(=O)O)NC(=O)[C@@H]1CCCN1C(=O)[C@@H](NC(=O)[C@H](C)NC(=O)[C@H](CC(N)=O)NC(=O)[C@H](CC(=O)O)NC(=O)CNC(=O)[C@@H]1CCCN1C(=O)[C@H](Cc1ccc(O)cc1)NC(=O)[C@@H](NC(=O)[C@@H]1CCCN1C(=O)[C@H](CCC(=O)O)NC(=O)[C@H](CC(C)C)NC(=O)[C@@H]1CCCN1C(=O)[C@H](C)NC(=O)[C@H](C)N)C(C)C)[C@@H](C)O)C(=O)N[C@@H](CC(N)=O)C(=O)N[C@@H](CCSC)C(=O)N[C@@H](CC(C)C)C(=O)N[C@H](C(=O)N[C@@H](CCCNC(=N)N)C(=O)N1CCC[C@H]1C(=O)N[C@@H](CCCNC(=N)N)C(=O)N[C@@H](Cc1ccc(O)cc1)C(N)=O)[C@@H](C)O [PP-Ala0],inhibition of food intake over 24 hours vs saline,[1]; [2],statistically significant inhibition of food intake
same,level at time molar at 0.75 h,"in vivo; male, C57BL/6, mouse, 150 nmol/kg, plasma level of PP-Ala0 at 45 minutes, alone",4.92 ± 0.48 nM
same,level at time molar at 1.5 h,"in vivo; male, C57BL/6, mouse, 150 nmol/kg, plasma level of PP-Ala0 at 90 minutes, alone",1.81 ± 0.319 nM
same,decrease of plasma level (peptide cleared) between 45 and 90 minutes after injection,in vivo; mouse,60%
same,IC50,"mouse Y4 receptor; membranes of HEK293 cells overexpressing mouse Y4 receptor, competition with 125I-PP (100 pM), 90 min, 4°C, mean ± SEM of three to five separate experiments, read-out: IC50 (half maximal inhibitory concentration), Y4 receptor binding affinity",0.35 ± 0.05 nM
CC(C)C[C@H](NP(=O)(O)O[C@@H]1O[C@@H](C)[C@H](O)[C@@H](O)[C@H]1O)C(=O)N[C@@H](Cc1c[nH]c2ccccc12)C(=O)O [phosphoramidon],"effect on food intake, inhibitor alone","[1]; phosphoramidon 5 mg/kg IP then saline SC, any interval up to 48 hours",did not cause a substantial reduction of food intake
N[C@@H](CC(=O)N1CCn2c(nnc2C(F)(F)F)C1)Cc1cc(F)c(F)cc1F [sitagliptin],"effect on food intake, inhibitor alone","[1]; sitagliptin 6 mg/kg IP then saline SC, any interval up to 8 hours",did not cause a substantial reduction of food intake
GAPLEPTYPGDNATPEQLARYAAALRRYINKLTRPRY-NH2 (C-terminus assumed) [PP-x],"cumulative food intake at 8 hours (0- to 8-hour interval), low dose","[1]; 25 nmol/kg SC, overnight-fasted C57BL/6 mice, n = 9, mean ± SEM",1.98 ± 0.14 g
same,"food intake at 8 hours, high dose","[1]; 150 nmol/kg SC, overnight-fasted C57BL/6 mice, n = 9, mean ± SEM",1.04 ± 0.09 g
same,plasma level at 120 minutes relative to PP,in vivo; mouse,almost threefold
same,level at time molar at 0.5 h,"in vivo; mouse, 100 nmol/kg, plasma peptide level at 30 minutes after injection",26.9 nM
same,level at time molar at 2 h,"in vivo; mouse, 100 nmol/kg, plasma peptide level at 120 minutes after injection",5.81 ± 0.215 nM
"PP3-36: DPPIV degradation product of PP (LEPVYPGDNATPEQMAQYAADLRRYINMLTRPRY-NH2; ends and bridges not checked; UniProt P01298 32-65, looked up, fragment)",cumulative food intake 0 to 8 hours,"[1]; 150 nmol/kg SC, overnight-fasted C57/BL6 mice, n = 7, mean ± SEM",1.71 ± 0.29 g
same,affinity to the Y4 receptor compared with PP,"mouse Y4 receptor; DPPIV degradation product compared with PP, statement in discussion",no substantial reduction in affinity

# From publication PMC5460925, “Degradation Paradigm of the Gut Hormone, Pancreatic Polypeptide, by Hepatic and Renal Peptidases” (Endocrinology, 2017)
